According to patent US20220047702A1, “TARGETED MAGNETIC VEHICLES AND METHOD OF USING THE SAME” (HADASIT MEDICAL RESEARCH SERVICES AND DEVELOPMENT LTD., priority 2019, published 2022):
Entries after “also recorded” stand apart in the source; their conditions may differ.

Legend:
[1] = Bound avastin concentration on IO/HSA NPs (ELISA); type: physicochemical; settings: via ELISA method
Method: 200 μl of NHS-PEG-MA [MA=melimide] (MW=3000 g/mol) were added to sterile IO/HSA nanoparticles dispersion in PBS (5 ml, 10 mg/mL). The reaction mixture was shaken at room temperature for 30 min. The derivatized PEGMA-conjugated IO/HSA NPs PBS dispersion was washed and eluted with bicarbonate buffer in a magnetic column, followed by immediate addition under sterile conditions of 40 μl of AV aqueous solution (25 mg/ml). The reaction mixture was shaken at 4° C. for 1.5 h. then, 10 weight % glycine solution (10 mg) were added to the AV-conjugated IO/HSA NPs bicarbonate aqueous dispersion to block residual sites. The AV-IO/HSA nanoparticles were then washed and eluted through a magnetic column with PBS and stored under sterile conditions.
Avastin was physically conjugated to the IO/HSA nanoparticles by adding 7.5 mg of avastin to 4 mL of the IO/HSA NPs PBS dispersion (10 mg/mL). […]
The attached and remaining concentrations of physically and covalently conjugated avastin was determined through ELISA assay using a standard protocol. The calculated covalent bound avastin concentration (via ELISA method) was 0.10 mg/1 mg of the nanoparticles. The calculated physical conjugated avastin concentration (via ELISA method) was 0.13 mg/1 mg of the nanoparticles (30% more of the covalent binding process).

CT26 tumors = assay: Anti-tumor activity of systemically administered 5FU in tumor-xenografted mice; type: in vivo; settings: three consecutive intraperitoneal injections, vs normal saline
Method: Male BALB/c mice (6 weeks of age, Envigo, Israel) were used for all in-vivo experiments. All experiments were performed with approval and in accordance with the guidelines of the Institutional Animal Care and Use Committee at The Hebrew University of Jerusalem. 1.5×10^6 CT26 cells were injected subcutaneously into the right anterior limb of each mouse. Ten days later (day 0) colorectal tumor appeared at the injection site. The mice were randomly allocated to control and experimental groups.
Following tumor creation systemic administration via intraperitoneal (IP) injection of 5FU (experiment) or normal saline (control) was performed. 5FU injections were carried out on days 3, 4, 5. Tumor progression was evaluated by measuring the tumor volume using a Vernier caliper at days 0,1,3,4,6,8 and 10.
Statistical analyses of tumor volumes were performed using RM two-way Analysis of Variation (ANOVA) with a confidence interval of 95% using post hoc Dunnet' s analysis of multiple comparisons for the tumor treated with 5FU bounded to 6×IONPs and Sidak's analysis for the tumor treated with free 5FU. Statistical analysis of iron staining quantification in the spleen was performed using the nonparametric Kruskal-Wallis test with a confidence interval of 95% using post hoc Dunn's analysis of multiple comparisons.

[2] = tested on: CT26 tumor (Bev resistant); assay: Anti-tumor activity of Bev SPIONs in Bev resistant tumors; type: in vivo, mice; settings: 10 mg/kg (FIG. 13), without magnetic field

In the case of “AV-IO/HSA: Avastin covalently bound via NHS-PEG-MA to IO/HSA nanoparticles”, the “calculated bound avastin concentration” value [1] is reported as 0.10 mg/1 mg of the nanoparticles.

For `O=c1[nH]cc(F)c(=O)[nH]1` [5FU, 5-Fluorouracil], the “tumor volume / tumor growth” value (CT26 tumors) was “No significant changes in tumor volumes; also recorded: did not inhibit CT26 tumor growth at all; also recorded: no significant difference”.

With bevacizumab the tumor growth ([2]; local administration) was “did not yield inhibition of tumor growth; also recorded: had no effect on tumor growth” and the tumor growth ([2]; systemic administration) was “did not yield inhibition of tumor growth; also recorded: had no effect on tumor growth”.
